Source: patent US20260124309A1, “STAT6 DEGRADERS AND USES THEREOF” (Kymera Therapeutics, Inc., priority 2023, published 2026)

How the values were obtained:
[1] = target: T1, STAT6-HiBiT (Homo sapiens, UniProt P42226); test: STAT6 HiBiT degradation in A549 (STAT6-HiBiT) cells; type: cell-based; details: 24 h
T1 construct: Degradation of STAT6 in endogenously tagged STAT6-HiBiT A549 cells; endogenous in cells; host or cells: A549 (STAT6-HiBiT) knock-in cells
T1 sequence (P42226 1-847): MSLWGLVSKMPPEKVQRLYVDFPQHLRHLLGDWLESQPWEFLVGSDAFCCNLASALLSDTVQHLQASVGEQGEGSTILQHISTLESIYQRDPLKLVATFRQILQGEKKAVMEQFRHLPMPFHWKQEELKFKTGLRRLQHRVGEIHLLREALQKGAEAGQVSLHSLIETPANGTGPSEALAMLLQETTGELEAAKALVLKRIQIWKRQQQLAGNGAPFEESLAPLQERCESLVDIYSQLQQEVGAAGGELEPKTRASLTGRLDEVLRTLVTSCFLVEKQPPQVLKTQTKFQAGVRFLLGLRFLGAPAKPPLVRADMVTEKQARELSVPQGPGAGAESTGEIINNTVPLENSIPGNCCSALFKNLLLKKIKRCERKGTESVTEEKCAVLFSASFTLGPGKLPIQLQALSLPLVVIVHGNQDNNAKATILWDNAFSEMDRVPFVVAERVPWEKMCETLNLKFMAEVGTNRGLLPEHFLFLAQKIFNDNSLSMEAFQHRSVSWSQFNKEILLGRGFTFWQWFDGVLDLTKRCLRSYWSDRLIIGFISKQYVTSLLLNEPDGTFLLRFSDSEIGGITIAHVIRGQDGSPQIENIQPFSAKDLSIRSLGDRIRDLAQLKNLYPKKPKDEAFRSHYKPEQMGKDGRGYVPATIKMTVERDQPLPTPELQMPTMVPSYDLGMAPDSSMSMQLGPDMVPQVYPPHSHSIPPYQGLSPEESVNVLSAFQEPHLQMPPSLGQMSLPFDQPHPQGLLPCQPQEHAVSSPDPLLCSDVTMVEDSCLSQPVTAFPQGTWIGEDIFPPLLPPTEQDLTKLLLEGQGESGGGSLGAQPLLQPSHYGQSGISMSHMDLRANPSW
Protocol: Degradation of STAT6 in endogenously tagged STAT6-HiBiT A549 cells was quantitatively measured using the Nano-Glo HiBiT Lytic Detection System (Promega, 3040). A549 (STAT6-HiBiT) cells were seeded in 384-well plates with a density of 1.25k cells per well in 20 μl fresh media. Compounds were then added to the assay plates using the Apricot S3 with a final top concentration of up to 10 uM in a 4-fold dilution series with total of 10 doses. The assay plates were then incubated for 24 hours at 37° C. under 5% CO2. At the assay endpoint, 20 μL of Nano-Glo HiBiT Lytic Reagent was added to each well and agitated on a plate shaker at 300 rpm for 10 minutes at room temperature. Luminescence was read on PHERAStar FSX Instrument (Is integration time). The data was analyzed by GraphPad Prism and the dose dependent STAT6 degradation was fit using the four-parameter inhibitor vs. response nonlinear regression.
The letter codes for DC50 (nM) include: A (<1 nM): B (1-10 nM); C (>10-100 nM); D (>100-1000 nM); E (>1000 nM); and F (not tested). The letter codes for Dmax (%) include: A (>90%); B (>70-90%); C (>50-70%); D (<50%); and E (not tested).

[2] = target: T2, biotinylated truncated STAT6 (123-632)-avi (Homo sapiens, UniProt P42226); test: STAT6 HTRF binding assay; details: HTRF binding, 0.15 nM biotinylated truncated STAT6 (123-632)-avi, 20 nM fluorescein-labeled probe
T2 construct: biotinylated truncated STAT6 (123-632)-avi purified from E. coli; made in house; host or cells: E. coli
T2 sequence (P42226 123-632 limits assumed): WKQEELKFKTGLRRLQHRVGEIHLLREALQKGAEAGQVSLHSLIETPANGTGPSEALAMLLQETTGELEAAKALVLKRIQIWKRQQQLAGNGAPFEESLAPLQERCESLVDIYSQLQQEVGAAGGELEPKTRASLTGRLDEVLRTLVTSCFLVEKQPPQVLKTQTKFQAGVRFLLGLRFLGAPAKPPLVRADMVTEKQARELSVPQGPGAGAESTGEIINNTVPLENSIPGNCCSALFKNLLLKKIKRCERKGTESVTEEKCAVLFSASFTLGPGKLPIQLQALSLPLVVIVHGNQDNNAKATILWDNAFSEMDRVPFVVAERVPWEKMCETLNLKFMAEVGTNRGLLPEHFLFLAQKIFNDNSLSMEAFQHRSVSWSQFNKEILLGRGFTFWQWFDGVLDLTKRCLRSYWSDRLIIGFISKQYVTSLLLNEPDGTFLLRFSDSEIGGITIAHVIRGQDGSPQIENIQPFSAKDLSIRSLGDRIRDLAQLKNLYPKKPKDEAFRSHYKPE
Protocol: HTRF binding assays were performed using 0.15 nM biotinylated truncated STAT6 (123-632)-avi purified from E. coli, 1× Streptavidin-terbium (CisBio) prepared by mixing SA-Tb in PPI detection buffer (CisBio), 20 nM proprietary fluorescein-labeled probe, and test compounds in assay buffer consisting of 50 mM HEPES-Na pH 7.5, 100 mM NaCl, 1 mM EDTA, 2 mM DTT, 0.1% Tween-20 with a final volume of 20 uL. Compound stocks were dissolved at 10 mM in 100% DMSO and 11 point titration with 3 fold serial dilution was performed in white, opaque 384 well microplates. Reaction plates were incubated at room temperature for 30 minutes. Plates were centrifuged at low rpm for 5 mins, and the ratio of fluorescence intensities were measured at emission wavelengths for fluorescein acceptor (520 nm) and terbium donor (495 nm) on Envision Plate reader. % Inhibition was calculated from the 520/495 ratio generated by using proprietary positive control compound for 100% inhibition and DMSO only reactions for 0% inhibition. Data was processed and dose response curves were generated using GraphPad Prism to determine the concentration required for inhibiting 50% of the HTRF signal (IC50).
The letter codes for IC50 (μM) include: A (<0.1 μM); B (0.1-1 μM); C (>1-10 μM); D (>10-100 μM); E (>100 μM); and F (not tested).

[3] = target: T3, STAT6 (Homo sapiens, UniProt P42226); test: STAT6 MSD degradation in A549 cells; type: cell-based; details: 24 h
T3 construct: endogenous in cells; host or cells: A549
T3 sequence (P42226 1-847): T1 sequence (P42226 1-847)
Protocol: Degradation of STAT6 in cells was quantitatively measured using Meso Scale Discovery (MSD) technology. A549 cells were seeded in 96-well plates with a density of 1.5×10e4 to 5×10e5 cells per well in 100 μl fresh media. Compounds were then added to the assay plates with a final top concentration of up to 10 uM in a 1:3 dilution series with total of 9 doses. The assay plates were then incubated for 4 to 24 hours at 37° C. under 5% CO2. The assay plates were then centrifuged for 5 minutes and the cell pellets were treated with 100 μl/well RIPA lysis buffer (Boston Bioproducts, BP-115D) with protease and phosphatase inhibitors (Roche, 05892791001 and 04906837001). To prepare the MSD assay plates (MSD, L15XA), the plates were coated with the capture antibody (Abnova, H00006778) in PBS, at 40 μl/well. The plates were then incubated overnight at 4° C., washed 1 time with 150 μl/well TBST buffer (Cell Signaling Technology, #9997S) and blocked with 150 μl/well blocking buffer (MSD, R93BA-4). Cell lysates were then added to MSD assay plates and the plates were incubated at room temperature for 1 hour. The plates were then washed 3 times with 150 μl/well TBST buffer and 25 μl/well primary detection antibody (Cell Signaling Technology, #5397S). The assay plates were then incubated at room temperature for 1 hour, washed 3 times with 150 μl/well TBST buffer, and 25 μl/well secondary detection antibody, SULFO-TAG anti-rabbit antibody (MSD, R32AB-1) were added. The assay plates were then incubated at room temperature for 1 hour, washed 3 times with 150 μl/well TBST buffer, and 150 μl/well MSD reading buffer (MSD, R92TC-2) were added. The plates were then analyzed by an MSD reader. The data was analyzed by GraphPad Prism and the dose dependent STAT6 degradation was fit using the four-parameter inhibitor vs. response nonlinear regression.
The letter codes for DC50 (nM) include: A (<1 nM); B (1-10 nM); C (>10-100 nM); D (>100-1000 nM); E (>1000 nM); and F (not tested). The letter codes for Dmax (oo) include: A (>90%); B (>70-90%); C (>50-70%); D ([…]); and F (not tested).

| SMILES | DC50 [1] [nM] | Dmax [1] [%] | IC50 [2] [nM] | DC50 [3] [nM] | Dmax [3] [%] |
| --- | --- | --- | --- | --- | --- |
| Cc1nn([C@H]2CCC(=O)NC2=O)c2cccc(CCN3CCN(c4cc(Cl)c(-c5cc(C6=CCCN(C(=O)CCn7cccn7)C6)c(F)c6[nH]c(C(=O)N(C)C)cc56)cc4F)CC3)c12 (single isomer, unassigned) [Example I-1078] | < 1 | > 90 | < 100 | – | – |
| Cc1nn(C2CCC(=O)NC2=O)c2cccc(CCN3CCN(c4cc(Cl)c(-c5cc(C6=CCCN(C(=O)CCn7cccn7)C6)c(F)c6[nH]c(C(=O)N(C)C)cc56)cc4F)CC3)c12 (single isomer, unassigned) [Example I-1079] | < 1 | > 90 | < 100 | – | – |
| CN(C)C(=O)c1cc2c(-c3ccc(C4CCN(c5ccc([C@@H]6CCC(=O)NC6=O)cc5F)CC4)cc3)cc(C3=CCCN(C(=O)CCn4ccnn4)C3)c(F)c2[nH]1 (single isomer, unassigned) [Example I-1438] | < 1 | > 90 | < 100 | – | – |
| CN(C)C(=O)c1cc2c(-c3ccc(C4CCN(c5ccc(C6CCC(=O)NC6=O)cc5F)CC4)cc3)cc(C3=CCCN(C(=O)CCn4ccnn4)C3)c(F)c2[nH]1 (single isomer, unassigned) [Example I-1439] | < 1 | > 90 | < 100 | – | – |
| CN(C)C(=O)c1cc2c(F)c(C3=CCCN(C(=O)CCn4cccn4)C3)cc(-c3ccc(C4CN(C(=O)c5ccc(Cl)c(C6CCC(=O)NC6=O)c5)C4)cc3)c2o1 (stereo not drawn) [Example I-495, 5-(1-(3-(1H-pyrazol-1-yl)propanoyl)-1,2,5,6-tetrahydropyridin-3-yl)-7-(4-(1-(4-chloro-3-(2,6-dioxopiperidin-3-yl)benzoyl)azetidin-3-yl)phenyl)-4-fluoro-N,N-dimethylbenzofuran-2-carboxamide] | – | – | < 100 | 10 to 100 | 50 to 70 |
| Cc1cc(C2CCN(c3cccc4c3n(C)c(=O)n4C3CCC(=O)NC3=O)CC2)ccc1-c1cc(C2=CCCN(C(=O)C(C)C)C2)c(F)c2[nH]c(C(=O)N(C)C)cc12 (stereo not drawn) [Example I-566] | – | – | 1000 to 10000 | < 1 | > 90 |
| CN(C)C(=O)c1cc2c(-c3ccc(C4CCN(c5ccc(C6CCC(=O)NC6=O)cc5F)CC4)cc3)cc(C3=CCCN(C(=O)CCn4cccn4)C3)c(F)c2[nH]1 (stereo not drawn) [Example I-628, 6-(1-(3-(1H-pyrazol-1-yl)propanoyl)-1,2,5,6-tetrahydropyridin-3-yl)-4-(4-(I-(4-(2,6-dioxopiperidin-3-yl)-2-fluorophenyl)piperidin-4-yl)phenyl)-7-fluoro-N,N-dimethyl-1H-indole-2-carboxamide] | – | > 90 | < 100 | < 1 | > 90 |
| COc1cc(N2CCN(c3ccc(-c4cc(C5=CCCN(C(=O)CCn6cccn6)C5)c(F)c5[nH]c(C(=O)N(C)C)cc45)c(F)c3F)CC2)c(F)cc1NC1CCC(=O)NC1=O (stereo not drawn) [Example I-677, 6-(1-(3-(1H-pyrazol-1-yl)propanoyl)-1,2,5,6-tetrahydropyridin-3-yl)-4-(4-(4-(4-((2,6-dioxopiperidin-3-yl)amino)-2-fluoro-5-methoxyphenyl)piperazin-1-yl)-2,3-difluorophenyl)-7-fluoro-N,N-dimethyl-1H-indole-2-carboxamide] | < 1 | > 90 | < 100 | < 1 | > 90 |
| COc1cc(N2CCN(CCCCCCCCN(C(=O)[C@H]3CCCN(c4cncc5ccccc45)C3)c3ccc(=O)n(CC(=O)O)c3)CC2)ccc1-c1cc(C2=CCCN(C(=O)CCn3ccnn3)C2)c(F)c2[nH]c(C(=O)N(C)C)cc12 [Example I-1076, (S)-2-(5-(N-(8-(4-(4-(6-(l-(3-(1H-1,2,3-triazol-1-yl)propanoyl)-1,2,5,6-tetrahydropyridin-3-yl)-2-(dimethylcarbamoyl)-7-fluoro-LH-indol-4-yl)-3-methoxyphenyl)piperazin-1-yl)octyl)-1-(isoquinolin-4-yl)piperidine-3-carboxamido)-2-oxopyridin-1 (2H)-yl)acetic acid] | – | – | < 100 | 10 to 100 | 50 to 70 |
